Consider four compounds from ChEMBL document CHEMBL1150976, “The selectivity of protein kinase inhibitors: a further update” (Biochem J, 2007).

Assay [1] addresses Serine/threonine-protein kinase PAK 4 (Homo sapiens, UniProt O96013). Put plainly: Percentage PAK4 activity remaining in the presence of 3uM inhibitor.
The target of assay [2] is Tyrosine-protein kinase Yes (Homo sapiens, UniProt P07947). Description: Inhibition of Yes in the presence of 20uM ATP.
In assay [3] the target is MAP kinase-activated protein kinase 3 (Homo sapiens) (UniProt Q16644). Put plainly: Percentage MAPKAPK3 activity remaining in the presence of 3uM inhibitor.
In assay [4] the target is T1, Mitogen-activated protein kinase 12 (Homo sapiens) (UniProt P53778).
T1 sequence (whole entry): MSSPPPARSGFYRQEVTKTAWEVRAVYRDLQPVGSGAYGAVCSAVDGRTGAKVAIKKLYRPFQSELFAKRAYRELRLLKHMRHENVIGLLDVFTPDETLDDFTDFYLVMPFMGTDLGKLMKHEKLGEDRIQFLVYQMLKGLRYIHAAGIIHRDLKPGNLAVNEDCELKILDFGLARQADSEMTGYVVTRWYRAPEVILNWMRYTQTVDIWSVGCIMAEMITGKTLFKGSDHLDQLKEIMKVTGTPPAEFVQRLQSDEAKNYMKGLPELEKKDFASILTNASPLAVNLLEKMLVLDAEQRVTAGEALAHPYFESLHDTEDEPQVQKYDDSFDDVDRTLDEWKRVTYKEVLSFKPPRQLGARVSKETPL
Description: Percentage p38-gamma activity remaining in the presence of 3uM inhibitor.

Assay [5] deals with T2, Dual specificity tyrosine-phosphorylation-regulated kinase 3 (Homo sapiens) (UniProt O43781).
T2 sequence (whole entry): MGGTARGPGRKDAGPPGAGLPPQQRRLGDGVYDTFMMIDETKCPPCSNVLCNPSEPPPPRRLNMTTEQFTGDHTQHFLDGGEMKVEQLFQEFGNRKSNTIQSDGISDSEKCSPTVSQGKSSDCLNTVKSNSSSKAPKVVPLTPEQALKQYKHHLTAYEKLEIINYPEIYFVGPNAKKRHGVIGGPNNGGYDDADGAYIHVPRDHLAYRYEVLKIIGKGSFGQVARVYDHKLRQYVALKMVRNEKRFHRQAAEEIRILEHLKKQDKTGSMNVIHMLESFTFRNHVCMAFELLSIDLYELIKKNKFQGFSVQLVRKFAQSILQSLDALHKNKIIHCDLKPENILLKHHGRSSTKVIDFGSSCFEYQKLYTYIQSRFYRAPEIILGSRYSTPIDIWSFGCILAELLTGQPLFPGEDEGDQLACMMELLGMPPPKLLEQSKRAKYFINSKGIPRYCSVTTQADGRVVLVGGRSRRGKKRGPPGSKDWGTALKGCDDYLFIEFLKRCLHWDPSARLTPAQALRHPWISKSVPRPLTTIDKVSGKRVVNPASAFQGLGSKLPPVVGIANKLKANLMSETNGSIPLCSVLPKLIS
Put plainly: Percentage DYRK3 activity remaining in the presence of 3uM inhibitor.

For assay [6], the target named is T3, Inhibitor of nuclear factor kappa-B kinase subunit epsilon (Homo sapiens) (UniProt Q14164).
T3 sequence (whole entry): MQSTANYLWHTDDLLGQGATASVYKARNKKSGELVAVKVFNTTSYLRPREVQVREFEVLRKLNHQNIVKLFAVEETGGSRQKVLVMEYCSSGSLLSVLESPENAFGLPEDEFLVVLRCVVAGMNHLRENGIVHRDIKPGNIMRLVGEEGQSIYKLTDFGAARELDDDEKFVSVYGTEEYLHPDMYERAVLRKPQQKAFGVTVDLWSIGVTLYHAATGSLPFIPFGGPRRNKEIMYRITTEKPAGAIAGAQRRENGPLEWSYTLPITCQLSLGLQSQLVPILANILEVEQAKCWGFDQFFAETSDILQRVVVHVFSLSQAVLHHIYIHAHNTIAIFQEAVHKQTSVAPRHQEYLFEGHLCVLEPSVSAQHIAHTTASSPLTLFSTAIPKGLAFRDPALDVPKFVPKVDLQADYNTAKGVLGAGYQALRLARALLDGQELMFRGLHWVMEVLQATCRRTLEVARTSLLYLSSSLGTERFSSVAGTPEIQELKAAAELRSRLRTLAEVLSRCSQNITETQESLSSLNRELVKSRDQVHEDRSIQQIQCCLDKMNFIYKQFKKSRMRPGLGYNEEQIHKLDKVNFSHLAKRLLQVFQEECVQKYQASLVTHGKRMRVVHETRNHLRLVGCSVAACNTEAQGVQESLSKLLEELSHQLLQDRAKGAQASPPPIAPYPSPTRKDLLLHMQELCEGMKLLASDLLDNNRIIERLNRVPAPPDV
Put plainly: Percentage IKKepsilon activity remaining in the presence of 0.01uM inhibitor. The settings on record: filed as antagonist.

For assay [7], the target named is Ribosomal protein S6 kinase alpha-5 (Homo sapiens) (UniProt O75582). Description: Percentage MSK1 activity remaining in the presence of 2uM inhibitor.
For assay [8], the target named is T4, Dual specificity tyrosine-phosphorylation-regulated kinase 2 (Homo sapiens) (UniProt Q92630).
T4 sequence (whole entry): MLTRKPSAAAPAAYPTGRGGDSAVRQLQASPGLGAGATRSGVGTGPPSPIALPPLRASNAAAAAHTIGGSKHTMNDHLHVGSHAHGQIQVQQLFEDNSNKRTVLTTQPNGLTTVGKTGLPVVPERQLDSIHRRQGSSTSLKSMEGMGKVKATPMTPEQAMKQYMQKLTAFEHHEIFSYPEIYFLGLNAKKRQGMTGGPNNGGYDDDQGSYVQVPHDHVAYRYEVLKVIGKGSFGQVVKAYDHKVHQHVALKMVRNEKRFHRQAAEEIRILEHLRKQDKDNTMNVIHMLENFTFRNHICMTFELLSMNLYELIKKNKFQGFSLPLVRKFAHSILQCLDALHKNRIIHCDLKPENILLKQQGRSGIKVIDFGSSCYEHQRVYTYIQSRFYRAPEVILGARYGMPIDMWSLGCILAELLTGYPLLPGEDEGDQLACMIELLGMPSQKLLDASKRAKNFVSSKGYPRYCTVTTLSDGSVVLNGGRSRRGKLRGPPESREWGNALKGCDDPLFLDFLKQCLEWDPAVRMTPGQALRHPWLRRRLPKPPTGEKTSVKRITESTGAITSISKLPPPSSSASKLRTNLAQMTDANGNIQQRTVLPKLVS
Put plainly: Percentage DYRK2 activity remaining in the presence of 2uM inhibitor.

The target of assay [9] is Casein kinase II (Homo sapiens) (UniProt P67870+P68400+P19784). Description: Percentage CK2 activity remaining in the presence of 2uM inhibitor. It is filed as protein-complex assay.
For assay [10], the target named is MAP kinase-interacting serine/threonine-protein kinase 2 (Homo sapiens) (UniProt Q9HBH9). Put plainly: Percentage MNK2 activity remaining in the presence of 2uM inhibitor.
The target in assay [11] is Mitogen-activated protein kinase 9 (Homo sapiens, UniProt P45984). Put plainly: Percentage JNK2 activity remaining in the presence of 2uM inhibitor.
Assay [12] has as its target Mitogen-activated protein kinase 10 (Homo sapiens) (UniProt P53779). Description: Percentage JNK3 activity remaining in the presence of 2uM inhibitor.
Assay [13] has as its target SRSF protein kinase 1 (Homo sapiens) (UniProt Q96SB4). Put plainly: Percentage SRPK1 activity remaining in the presence of 25uM inhibitor.

Ribosomal protein S6 kinase alpha-5 (Homo sapiens), sequence (O75582 whole entry, looked up): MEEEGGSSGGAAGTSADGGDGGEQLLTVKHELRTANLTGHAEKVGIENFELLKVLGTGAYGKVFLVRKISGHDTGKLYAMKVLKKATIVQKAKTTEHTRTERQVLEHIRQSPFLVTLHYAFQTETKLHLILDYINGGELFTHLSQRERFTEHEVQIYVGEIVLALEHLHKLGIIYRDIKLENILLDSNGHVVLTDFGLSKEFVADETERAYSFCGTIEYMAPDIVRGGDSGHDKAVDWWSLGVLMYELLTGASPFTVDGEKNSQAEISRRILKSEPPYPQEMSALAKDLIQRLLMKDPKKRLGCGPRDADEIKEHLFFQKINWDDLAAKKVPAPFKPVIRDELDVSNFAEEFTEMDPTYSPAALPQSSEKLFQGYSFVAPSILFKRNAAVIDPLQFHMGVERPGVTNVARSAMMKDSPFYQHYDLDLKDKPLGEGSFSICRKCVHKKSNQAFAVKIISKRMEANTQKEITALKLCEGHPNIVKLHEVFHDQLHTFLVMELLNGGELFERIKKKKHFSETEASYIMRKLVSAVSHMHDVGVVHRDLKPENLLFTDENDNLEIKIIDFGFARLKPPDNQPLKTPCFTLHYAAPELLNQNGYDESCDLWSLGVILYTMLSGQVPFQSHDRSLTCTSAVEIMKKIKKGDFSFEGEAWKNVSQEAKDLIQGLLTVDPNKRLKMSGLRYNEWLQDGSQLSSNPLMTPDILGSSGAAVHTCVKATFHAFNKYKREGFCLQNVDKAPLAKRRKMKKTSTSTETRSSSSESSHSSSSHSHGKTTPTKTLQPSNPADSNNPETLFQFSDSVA
Mitogen-activated protein kinase 10 (Homo sapiens), sequence (P53779 whole entry): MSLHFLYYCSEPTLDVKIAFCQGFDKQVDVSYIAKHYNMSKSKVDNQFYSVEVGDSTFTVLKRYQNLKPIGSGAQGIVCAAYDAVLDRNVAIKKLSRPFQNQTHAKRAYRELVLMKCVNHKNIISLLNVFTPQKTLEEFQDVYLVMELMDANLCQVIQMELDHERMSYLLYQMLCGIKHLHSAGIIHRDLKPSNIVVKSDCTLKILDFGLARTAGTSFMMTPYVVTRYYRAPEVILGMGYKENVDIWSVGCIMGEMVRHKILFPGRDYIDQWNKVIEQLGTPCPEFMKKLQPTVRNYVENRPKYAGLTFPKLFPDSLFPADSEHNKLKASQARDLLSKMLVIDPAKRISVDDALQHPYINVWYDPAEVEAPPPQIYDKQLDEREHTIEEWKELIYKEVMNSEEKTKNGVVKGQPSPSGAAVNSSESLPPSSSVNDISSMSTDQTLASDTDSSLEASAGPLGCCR
Mitogen-activated protein kinase 9, sequence (P45984 whole entry, looked up): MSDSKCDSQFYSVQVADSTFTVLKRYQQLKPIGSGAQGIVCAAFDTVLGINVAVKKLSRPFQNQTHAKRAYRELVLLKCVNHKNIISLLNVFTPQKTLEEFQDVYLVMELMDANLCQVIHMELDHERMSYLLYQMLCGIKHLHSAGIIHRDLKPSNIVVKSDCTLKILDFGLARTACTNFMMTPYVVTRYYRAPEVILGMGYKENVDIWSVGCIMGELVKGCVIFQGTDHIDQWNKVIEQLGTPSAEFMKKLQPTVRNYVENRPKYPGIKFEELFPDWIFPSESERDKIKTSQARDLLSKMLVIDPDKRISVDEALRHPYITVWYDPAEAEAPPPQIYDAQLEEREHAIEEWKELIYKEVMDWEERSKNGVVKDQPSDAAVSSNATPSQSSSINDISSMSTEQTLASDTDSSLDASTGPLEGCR
SRSF protein kinase 1 (Homo sapiens), sequence (Q96SB4 whole entry): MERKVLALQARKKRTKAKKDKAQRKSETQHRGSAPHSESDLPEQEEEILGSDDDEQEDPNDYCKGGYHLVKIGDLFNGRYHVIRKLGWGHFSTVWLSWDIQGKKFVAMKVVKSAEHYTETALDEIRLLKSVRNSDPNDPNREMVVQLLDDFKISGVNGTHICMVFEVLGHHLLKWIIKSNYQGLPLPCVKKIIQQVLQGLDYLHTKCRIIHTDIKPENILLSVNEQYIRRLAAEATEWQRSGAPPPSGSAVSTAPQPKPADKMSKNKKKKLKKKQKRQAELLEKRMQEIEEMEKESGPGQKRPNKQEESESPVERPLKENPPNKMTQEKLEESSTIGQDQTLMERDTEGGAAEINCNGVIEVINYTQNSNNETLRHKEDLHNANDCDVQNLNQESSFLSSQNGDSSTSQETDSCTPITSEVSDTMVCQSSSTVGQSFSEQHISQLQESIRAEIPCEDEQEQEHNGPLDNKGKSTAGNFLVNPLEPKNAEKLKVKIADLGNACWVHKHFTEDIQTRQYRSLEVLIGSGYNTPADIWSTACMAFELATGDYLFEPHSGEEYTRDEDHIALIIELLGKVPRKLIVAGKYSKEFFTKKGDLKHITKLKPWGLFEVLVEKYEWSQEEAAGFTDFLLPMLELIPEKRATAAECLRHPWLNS
MAP kinase-activated protein kinase 3 (Homo sapiens), sequence (Q16644 whole entry, looked up): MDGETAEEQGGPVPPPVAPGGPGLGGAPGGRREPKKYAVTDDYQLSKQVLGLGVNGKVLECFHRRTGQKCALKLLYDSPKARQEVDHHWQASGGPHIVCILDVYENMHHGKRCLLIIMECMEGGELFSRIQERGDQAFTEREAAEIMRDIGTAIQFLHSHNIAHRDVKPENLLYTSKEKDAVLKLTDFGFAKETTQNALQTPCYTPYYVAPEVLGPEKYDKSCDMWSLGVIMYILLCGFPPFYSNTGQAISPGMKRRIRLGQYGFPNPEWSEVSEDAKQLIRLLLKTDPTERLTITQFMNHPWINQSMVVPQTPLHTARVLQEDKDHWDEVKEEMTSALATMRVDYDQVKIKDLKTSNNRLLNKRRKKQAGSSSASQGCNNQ
Serine/threonine-protein kinase PAK 4, sequence (O96013 whole entry, looked up): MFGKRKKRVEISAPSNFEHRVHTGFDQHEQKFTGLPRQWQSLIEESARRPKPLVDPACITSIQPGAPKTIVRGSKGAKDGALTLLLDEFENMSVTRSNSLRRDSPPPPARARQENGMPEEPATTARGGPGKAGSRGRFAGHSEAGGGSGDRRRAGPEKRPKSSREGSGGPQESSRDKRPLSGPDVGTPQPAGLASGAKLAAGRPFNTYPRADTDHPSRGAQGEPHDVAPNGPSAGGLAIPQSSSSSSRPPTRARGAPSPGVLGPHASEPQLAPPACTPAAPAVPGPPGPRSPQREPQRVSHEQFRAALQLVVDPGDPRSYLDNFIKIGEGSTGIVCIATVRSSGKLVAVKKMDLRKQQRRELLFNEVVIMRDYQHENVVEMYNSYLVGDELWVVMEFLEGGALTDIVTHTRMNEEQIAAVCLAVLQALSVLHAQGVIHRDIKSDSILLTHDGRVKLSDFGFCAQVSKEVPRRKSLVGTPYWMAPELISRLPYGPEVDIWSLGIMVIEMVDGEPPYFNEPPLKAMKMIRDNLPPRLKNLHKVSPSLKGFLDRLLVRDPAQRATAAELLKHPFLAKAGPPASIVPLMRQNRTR
MAP kinase-interacting serine/threonine-protein kinase 2 (Homo sapiens), sequence (Q9HBH9 whole entry, looked up): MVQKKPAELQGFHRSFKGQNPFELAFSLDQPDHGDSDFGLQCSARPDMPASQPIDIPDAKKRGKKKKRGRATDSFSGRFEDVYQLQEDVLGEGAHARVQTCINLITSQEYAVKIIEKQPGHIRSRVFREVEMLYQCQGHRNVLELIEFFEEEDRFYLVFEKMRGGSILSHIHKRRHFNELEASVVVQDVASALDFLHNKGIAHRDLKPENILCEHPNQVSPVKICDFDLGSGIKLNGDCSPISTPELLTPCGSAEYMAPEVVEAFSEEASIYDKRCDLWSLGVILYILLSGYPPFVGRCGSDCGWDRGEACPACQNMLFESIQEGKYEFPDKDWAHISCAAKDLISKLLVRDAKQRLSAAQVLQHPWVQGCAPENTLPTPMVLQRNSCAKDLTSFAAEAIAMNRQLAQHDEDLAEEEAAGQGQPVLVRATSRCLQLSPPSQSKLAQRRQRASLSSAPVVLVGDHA
Tyrosine-protein kinase Yes, sequence (P07947 whole entry): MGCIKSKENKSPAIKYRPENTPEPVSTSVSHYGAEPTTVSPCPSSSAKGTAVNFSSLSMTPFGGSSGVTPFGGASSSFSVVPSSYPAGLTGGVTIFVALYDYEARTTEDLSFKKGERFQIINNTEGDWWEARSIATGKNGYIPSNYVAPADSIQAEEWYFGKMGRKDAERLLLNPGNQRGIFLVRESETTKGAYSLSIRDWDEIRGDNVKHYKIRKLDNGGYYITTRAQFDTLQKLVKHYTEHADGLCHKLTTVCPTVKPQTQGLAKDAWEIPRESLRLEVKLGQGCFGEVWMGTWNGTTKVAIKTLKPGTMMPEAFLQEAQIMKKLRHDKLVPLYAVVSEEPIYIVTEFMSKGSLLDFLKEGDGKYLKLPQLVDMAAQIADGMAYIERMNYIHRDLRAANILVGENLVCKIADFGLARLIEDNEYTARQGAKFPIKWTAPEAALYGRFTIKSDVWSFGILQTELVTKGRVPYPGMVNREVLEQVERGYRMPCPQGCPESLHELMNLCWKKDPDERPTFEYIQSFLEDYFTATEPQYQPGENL

In general, IC50 refers to the concentration that gives 50% inhibition. Regarding `Cc1ccc(-c2c(C(=O)CF)n(CCCO)c3ncnc(N)c23)cc1`, the Activity in assay [1] is 91%; in [3] it was 92%; in [4] it was 92%; in assay [5], 68%. Also, the IC50 in assay [2] is listed as 510 nM (antagonist).

For `O=C(NCCCNc1nc(Nc2cccc(NC(=O)N3CCCC3)c2)ncc1I)c1cccs1`, in assay [6], the Activity was 21%.

For `Cn1cc(C2=C(c3ccc(Cl)cc3Cl)C(=O)NC2=O)c2ccccc21`, the Activity came to 69% in [7]; 92% in assay [8]; 89% in [9]; 94% in assay [10]; 85% in assay [11]; 88% in assay [12].

As for `NCCNS(=O)(=O)c1ccc(Cl)c2ccncc12`, in [13], the Activity was 86%.
